Experiments:
Brd2 = Brd2 (Homo sapiens, UniProt P25440); assay: Immunoblot in MV4-11 cells; assay type: cell-based; set-up: endogenous in cells; host or cells: MV4-11; details: MV4-11, 6 h, increasing concentrations
Experimental: (§1) MV4-11 (0.7×10^6 cells/mL) were seeded in 10 cm plates (10 mL DMEM supplemented with 10% FBS and L-glutamine) overnight before treatment with compounds at the desired concentration and with a final DMSO concentration of 0.1% v/v. After 6 h incubation time, cells were washed 2× with DPBS (Gibco) and lysed using 85 μL RIPA buffer (Sigma-Aldrich) supplemented with cOmplete Mini EDTA-free protease inhibitor cocktail (Roche) and benzonase. Lysates were clarified by centrifugation (20,000 g, 10 min, 4° C.) and the total protein content of the supernatant was quantified using a Bradford colorimetric assay. Samples were prepared using equal amounts of total protein and LDS sample buffer (Invitrogen). For immunoblot analysis, the following antibodies were used: anti-Brd2 (ab139690, 1:2,000 dilution), anti-Brd3 (ab50818, 1:500 dilution), anti-Brd4 (ab128874, 1:1,000 dilution), anti-c-myc (ab32072, 1:1,000 dilution), anti- total PARP (BD Bioscience #556494; 1:1,000 dilution), anti-cleaved PARP (CST-9541T, 1:1,000 dilution), and anti-Tubulin hFAB-rhodamine (BioRad, 12004166, 1:10,000 dilution).

Brd3 = Brd3 (Homo sapiens, UniProt Q15059); assay: Immunoblot in MV4-11 cells; assay type: cell-based; set-up: endogenous in cells; host or cells: MV4-11; details: MV4-11, 6 h, increasing concentrations
Experimental: as §1

Sequence of Brd2 (P25440 whole entry): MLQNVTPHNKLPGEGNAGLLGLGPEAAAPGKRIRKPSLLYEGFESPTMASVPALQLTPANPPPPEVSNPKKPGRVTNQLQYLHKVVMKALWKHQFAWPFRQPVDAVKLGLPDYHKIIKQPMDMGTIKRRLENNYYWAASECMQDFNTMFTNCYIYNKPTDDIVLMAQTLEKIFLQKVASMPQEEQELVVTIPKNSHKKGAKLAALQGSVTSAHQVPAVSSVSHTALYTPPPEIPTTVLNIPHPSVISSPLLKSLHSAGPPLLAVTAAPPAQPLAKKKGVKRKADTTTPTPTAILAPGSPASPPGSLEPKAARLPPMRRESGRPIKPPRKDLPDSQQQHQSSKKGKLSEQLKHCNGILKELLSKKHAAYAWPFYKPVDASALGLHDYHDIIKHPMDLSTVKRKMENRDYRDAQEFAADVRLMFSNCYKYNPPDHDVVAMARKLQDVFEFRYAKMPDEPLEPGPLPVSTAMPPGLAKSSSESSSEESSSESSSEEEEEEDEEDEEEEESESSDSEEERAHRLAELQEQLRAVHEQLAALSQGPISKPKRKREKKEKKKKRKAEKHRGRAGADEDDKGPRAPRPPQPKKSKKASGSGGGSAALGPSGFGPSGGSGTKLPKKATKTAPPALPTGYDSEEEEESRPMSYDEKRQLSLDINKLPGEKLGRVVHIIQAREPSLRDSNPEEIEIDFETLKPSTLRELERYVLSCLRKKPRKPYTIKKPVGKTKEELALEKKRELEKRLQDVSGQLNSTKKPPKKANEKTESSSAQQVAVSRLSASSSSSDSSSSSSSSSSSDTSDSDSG
Sequence of Brd3 (Q15059 whole entry): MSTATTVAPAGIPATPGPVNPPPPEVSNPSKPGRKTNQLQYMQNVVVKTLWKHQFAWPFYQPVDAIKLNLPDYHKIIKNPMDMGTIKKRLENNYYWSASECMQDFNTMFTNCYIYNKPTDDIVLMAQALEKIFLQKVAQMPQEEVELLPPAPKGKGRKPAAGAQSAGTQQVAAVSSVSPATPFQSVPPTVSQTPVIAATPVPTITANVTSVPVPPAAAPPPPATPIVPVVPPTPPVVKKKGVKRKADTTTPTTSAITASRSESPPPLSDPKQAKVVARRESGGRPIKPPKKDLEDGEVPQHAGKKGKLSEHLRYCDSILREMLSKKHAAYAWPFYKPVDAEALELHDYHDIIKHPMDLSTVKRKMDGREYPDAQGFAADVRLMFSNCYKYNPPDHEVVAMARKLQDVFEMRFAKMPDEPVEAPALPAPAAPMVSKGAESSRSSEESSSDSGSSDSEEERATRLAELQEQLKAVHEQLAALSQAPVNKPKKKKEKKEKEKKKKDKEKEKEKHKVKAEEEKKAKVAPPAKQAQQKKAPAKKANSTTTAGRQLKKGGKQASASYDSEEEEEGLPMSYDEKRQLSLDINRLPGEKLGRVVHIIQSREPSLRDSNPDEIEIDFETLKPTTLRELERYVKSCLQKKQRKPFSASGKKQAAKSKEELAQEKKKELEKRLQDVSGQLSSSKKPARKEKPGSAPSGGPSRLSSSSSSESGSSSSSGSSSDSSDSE

For `CCCC(NC(=O)/C(C#N)=C/c1nccs1)c1ccc(OCCOCCOCCOCCOCCOCCOCCNC(=O)c2ccc(-c3ccc4c(c3)[C@H](Nc3ccc(Cl)cc3)C[C@H](C)N4C(C)=O)cc2)cc1` (some centres unmarked) [Example 05IB9], the Brd2 levels (Brd2) was “depletion” and the Brd3 levels (Brd3) was “depletion”.
